Laboratory results: US6410576B1, “Thiazolidine derivatives” (Santen Pharmaceutical Co., Ltd., priority 1998, dated 2002)
Counter-ions that a name gives are not always drawn.

Test system: not given
Test: not given
Details: not given

melting point | Compound
90 °C | CC(C)OC(=O)C(=O)[C@H](Cc1ccccc1)NC(=O)[C@@H]1CSC(c2ccccc2)N1C(=O)[C@@H](NC(=O)N(C)CCN)C(C)C (mixture of isomers) (as salt: hydrochloride) [Compound No. 6-2, Isopropyl (3S)-3-[(2RS,4R)-3-[(2S)-2-[[N-(2-aminoethyl)-N-methylamino]carbonyl]amino]-3-methyl-1-oxobutyl]-2-phenyl-1,3-thiazolidin-4-ylcarboxamidol-2-oxo-4-phenylbutyrate hydrochloride]

Target: T1, chymase extracted from a dog cardiac tissue (Canis lupus familiaris, UniProt P21842)
T1 construct: a heart is enucleated, and left ventricle is separated; from tissue; host or cells: beagle heart, left ventricle
T1 sequence (P21842 22-249): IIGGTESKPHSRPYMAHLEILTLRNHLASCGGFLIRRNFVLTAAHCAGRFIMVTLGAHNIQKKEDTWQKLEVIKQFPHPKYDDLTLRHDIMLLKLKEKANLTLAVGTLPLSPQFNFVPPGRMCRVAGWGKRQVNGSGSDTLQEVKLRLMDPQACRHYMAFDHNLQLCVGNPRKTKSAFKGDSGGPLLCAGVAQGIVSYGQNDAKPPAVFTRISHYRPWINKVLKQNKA
Test: Chymase inhibitory effect (liberation of His-Leu from angiotensin I, fluorescence intensity)
Assay type: biochemical
Details: angiotensin I substrate, 37° C. for one hour, pH 8 reaction buffer; read-out: IC50 (concentration required to inhibit the chymase enzymatic activity by 50%)
Source text: Chymase (enzyme) causes angiotensin I (substrate) to liberate a dipeptide (His-Leu) by the enzyme reaction with the substrate. It was reported that an enzymatic activity of chymase can be measured by measuring fluorescence intensity of the resulting peptide (Biochem. Biophys. Res. Com., 149 (3) 1186 (1987)). Since drugs having chymase inhibitory activities suppress this liberation of the dipeptide, the chymase inhibitory activities of the drugs can be measured by measuring fluorescence intensity. In the present pharmacological test, chymase inhibitory effects of the present compounds were studied by using chymase extracted from a dog cardiac tissue (J. Biol. Chem., 265 (36), 22348 (1990)).
1. A beagle is killed by drawing blood under Nembutal anesthesia, a heart is enucleated, and left ventricle is separated.
2. This left ventricle is finely minced, and the tissue weight is measured.
3. A 0.02 M Tris-HCl buffer (pH 7.4) is added to the tissue in an amount of 10 times by volume the tissue weight. This mixture is homogenized at 8,000 rpm for 20 seconds and then centrifuged at 4° C. and 21,000 rpm for 30 minutes, and the resulting supernatant is discarded.
(§1) 4. The same procedure as the above 3 is repeated twice for the residue. Then, a 0.02 M Tris-HCl buffer (pH 7.4) containing 1% Triton X-100 and 0.01 M potassium chloride is added to the residue in an amount of 10 times by volume the amount of the residue. This mixture is homogenized at 8,000 rpm for 20 seconds, then incubated at 4° C. for one hour and centrifuged at 21,000 rpm for 30 minutes, and the supernatant is discarded.
as §1, with “5. A” for “4. The same procedure as the above 3 is repeated twice for the residue. Then, a”, “0.5” for “0.01”
6. A 0.02 M Tris-HCl buffer (pH 7.4) containing 1% Triton X-100 and 2.0 M potassium chloride is added to the residue in an amount of 10 times the amount of the residue. This mixture is homogenized at 8,000 rpm for 20 seconds, then incubated at 4° C. for one hour and centrifuged at 21,000 rpm for 30 minutes. The obtained supernatant is used as a chymase enzyme solution.
Tris-HCl and disodium ethylenediaminetetraacetate are dissolved in water so that their concentrations are 92.3 mM and 12.0 mM respectively to prepare a reaction buffer adjusted to pH 8.
Angiotensin I is dissolved in water to prepare a 1.54 mM substrate solution.
A test compound is dissolved in dimethyl sulfoxide to prepare 3.0×10^−3 M, 3.0×10^−4 M, 3.0×10^−5 M and 3.0×10^−6 M test com solutions.
1. The reaction buffer (32.5 μl), the substrate solution (75.0 μl), the chymase enzyme solution (37.5 μl) and the test compound solution (5 μl) are mixed.
2. The obtained mixture is incubated at 37° C. for one hour.
3. To the mixture is added 15% trichloroacetic acid (225 μl), and the whole is centrifuged at 4° C. and 14,000 rpm for five minutes.
4. The supernatant is taken out. A 1% orthophthalaldehyde/methanol solution (165 μl) is added to 300 μl of this supernatant, and the whole is stirred and allowed to stand at room temperature for 10 minutes.
5. 1.5 M Hydrochloric acid (300 μl) is added to the resulting mixture, and the whole is stirred and centrifuged at 4° C. and 14,000 rpm for two minutes.
6. The supernatant is taken out and irradiated with light having a wavelength of 340 nm, and fluorescence intensity is measured at a wavelength of 455 nm.
The blank of this test is defined as follows. The same procedures as in the above 1 to 6 are repeated provided that a 20 mM Tris-HCl buffer (pH 7.4, 37.5 μl) containing 1% Triton X-100 and 2.0 M potassium chloride is used instead of the chymase enzyme solution (37.5 μl), and dimethyl sulfoxide (5 μl) is used instead of the test compound solution (5 μl) in the above 1. The obtained […] is the blank value. […]

IC50 | Compound
57 nM | CC(C)OC(=O)C(=O)[C@H](Cc1ccccc1)NC(=O)[C@@H]1CSC(c2ccccc2)N1C(=O)[C@@H](NC(=O)N(C)CCN)C(C)C (mixture of isomers) [Compound No. 6-2, Isopropyl (3S)-3-[(2RS,4R)-3-[(2S)-2-[[N-(2-aminoethyl)-N-methylamino]carbonyl]amino]-3-methyl-1-oxobutyl]-2-phenyl-1,3-thiazolidin-4-ylcarboxamidol-2-oxo-4-phenylbutyrate hydrochloride]
44 nM | CC(C)OC(=O)C(=O)[C@H](Cc1ccccc1)NC(=O)[C@@H]1CSCN1C(=O)[C@@H](NC(=O)COc1ccccc1)C(C)C [Compound No. 2-20, Isopropyl (3S)-3-[(4R)-3-[(2S)-3-methyl-1-oxo-2-[[(phenoxylmethyl)carbonyl]amino]butyl]-1,3-thiazolidin-4-ylcarboxamido]-2-oxo-4-phenylbutyrate]
66 nM | CC(C)[C@H](NC(=O)OCc1ccccc1)C(=O)N1CSC[C@H]1C(=O)N[C@@H](Cc1ccccc1)C(=O)C(=O)OCc1ccccc1 [Compound No. 2-37, Phenylmethyl (3S)-3-[(4R)-3-[(2S)-3-methyl-1-oxo-2-[[(phenylmethoxy)carbonyl]amino]butyl]-1,3-thiazolidin-4-ylcarboxamido]-2-oxo-4-phenylbutyrate]

Second part, the compound before the results:

Compound | IC50
CC(C)OC(=O)C(=O)[C@H](Cc1ccccc1)NC(=O)[C@@H]1CSCN1C(=O)[C@@H](NC(=O)OCc1ccccc1)C(C)C [Compound No. 2-1, Isopropyl (3S)-3-[(4R)-3-[(2S)-3-methyl-1-oxo-2-[[(phenylmethoxy)carbonyl]amino]butyl]-1,3-thiazolidin-4-ylcarboxamido]-2-oxo-4-phenylbutyrate] | 47 nM
COCC(=O)N[C@H](C(=O)N1CSC[C@H]1C(=O)N[C@@H](Cc1ccccc1)C(=O)C(=O)OC(C)C)C(C)C [Compound No. 2-19, Isopropyl (3S)-3-[(4R)-3-[(2S)-2-[(methoxymethyl)carbonyl]amino-3-methyl-1-oxobutyl]-1,3-thiazolidin-4-ylcarboxamido]-2-oxo-4-phenylbutyrate] | 56 nM
CC(C)OC(=O)C(=O)[C@H](Cc1ccccc1)NC(=O)[C@@H]1CSCN1C(=O)[C@@H](NC(=O)OC(C)(C)C)C(C)C [Compound No. 2-21, Isopropyl (3S)-3-[(4R)-3-[(2S)-2-(tert-butoxycarbonyl)amino-3-methyl-1-oxobutyl]-1,3-thiazolidin-4-ylcarboxamido]-2-oxo-4-phenylbutyrate] | 26 nM
CC(C)OC(=O)C(=O)[C@H](Cc1ccccc1)NC(=O)[C@@H]1CSCN1C(=O)[C@@H](NC(=O)N(C)Cc1ccccc1)C(C)C [Compound No. 2-25, Isopropyl (3S)-3-[(4R)-3-[(2S)-3-methyl-2-[[N-methyl-N-(phenylmethyl)amino]carbonyl]amino-1-oxobutyl]-1,3-thiazolidin-4-ylcarboxamido]-2-oxo-4-phenylbutyrate] | 31 nM
CC(C)OC(=O)C(=O)[C@H](Cc1ccccc1)NC(=O)[C@@H]1CSCN1C(=O)[C@@H](NC(=O)N(C)CCNC(=O)OC(C)(C)C)C(C)C [Compound No. 2-26, Isopropyl (3S)-3-[(4R)-3-[(2S)-2-[[N-[2-[(tert-butoxycarbonyl)amino]ethyl]-N-methylamino]carbonyl]amino-3-methyl-1-oxobutyl]-1,3-thiazolidin-4-ylcarboxamido]-2-oxo-4-phenylbutyrate] | 12 nM
